Laboratory results reported in ChEMBL document CHEMBL5260838 (J Med Chem, 2019).

Key:
Cytochrome P450 3A4 = Cytochrome P450 3A4 (Homo sapiens, UniProt P08684); assay: Inhibition of CYP3A4 (unknown origin); assay type: ADME
[1] = Clearance in Sprague-Dawley rat at 1 mg/kg, iv; assay type: ADME, organism-based; conditions: in vivo
[2] = Toxicity in FVB mouse assessed as tolerance; conditions: in vivo
[3] = Oral bioavailability in Sprague-Dawley rat at 5 mg/kg; assay type: ADME, organism-based; conditions: in vivo
[4] = AUC in FVB mouse at 30 mg/kg, po; assay type: ADME, organism-based; design: dose 30 mg/kg, route po; conditions: in vivo
[5] = target: Sodium channel protein type 8 subunit alpha (Homo sapiens, UniProt Q9UQD0); assay: Inhibition of human Nav1.6 alpha subunit expressed in HEK293 cells co-expressing beta1 subunit at -35 mV holding potential by PatchXpress automated voltage clamp electrophysiology technique; assay type: cell-based
[6] = target: Sodium channel protein type 9 subunit alpha (Homo sapiens, UniProt Q15858); assay: Displacement of [3H]GX-545 from human Nav1.7 alpha subunit expressed in HEK293 cells co-expressing beta1 subunit by liquid scintillation counting analysis; assay type: cell-based
Sequence of Sodium channel protein type 9 subunit alpha (Homo sapiens, UniProt Q15858) (Q15858 whole entry): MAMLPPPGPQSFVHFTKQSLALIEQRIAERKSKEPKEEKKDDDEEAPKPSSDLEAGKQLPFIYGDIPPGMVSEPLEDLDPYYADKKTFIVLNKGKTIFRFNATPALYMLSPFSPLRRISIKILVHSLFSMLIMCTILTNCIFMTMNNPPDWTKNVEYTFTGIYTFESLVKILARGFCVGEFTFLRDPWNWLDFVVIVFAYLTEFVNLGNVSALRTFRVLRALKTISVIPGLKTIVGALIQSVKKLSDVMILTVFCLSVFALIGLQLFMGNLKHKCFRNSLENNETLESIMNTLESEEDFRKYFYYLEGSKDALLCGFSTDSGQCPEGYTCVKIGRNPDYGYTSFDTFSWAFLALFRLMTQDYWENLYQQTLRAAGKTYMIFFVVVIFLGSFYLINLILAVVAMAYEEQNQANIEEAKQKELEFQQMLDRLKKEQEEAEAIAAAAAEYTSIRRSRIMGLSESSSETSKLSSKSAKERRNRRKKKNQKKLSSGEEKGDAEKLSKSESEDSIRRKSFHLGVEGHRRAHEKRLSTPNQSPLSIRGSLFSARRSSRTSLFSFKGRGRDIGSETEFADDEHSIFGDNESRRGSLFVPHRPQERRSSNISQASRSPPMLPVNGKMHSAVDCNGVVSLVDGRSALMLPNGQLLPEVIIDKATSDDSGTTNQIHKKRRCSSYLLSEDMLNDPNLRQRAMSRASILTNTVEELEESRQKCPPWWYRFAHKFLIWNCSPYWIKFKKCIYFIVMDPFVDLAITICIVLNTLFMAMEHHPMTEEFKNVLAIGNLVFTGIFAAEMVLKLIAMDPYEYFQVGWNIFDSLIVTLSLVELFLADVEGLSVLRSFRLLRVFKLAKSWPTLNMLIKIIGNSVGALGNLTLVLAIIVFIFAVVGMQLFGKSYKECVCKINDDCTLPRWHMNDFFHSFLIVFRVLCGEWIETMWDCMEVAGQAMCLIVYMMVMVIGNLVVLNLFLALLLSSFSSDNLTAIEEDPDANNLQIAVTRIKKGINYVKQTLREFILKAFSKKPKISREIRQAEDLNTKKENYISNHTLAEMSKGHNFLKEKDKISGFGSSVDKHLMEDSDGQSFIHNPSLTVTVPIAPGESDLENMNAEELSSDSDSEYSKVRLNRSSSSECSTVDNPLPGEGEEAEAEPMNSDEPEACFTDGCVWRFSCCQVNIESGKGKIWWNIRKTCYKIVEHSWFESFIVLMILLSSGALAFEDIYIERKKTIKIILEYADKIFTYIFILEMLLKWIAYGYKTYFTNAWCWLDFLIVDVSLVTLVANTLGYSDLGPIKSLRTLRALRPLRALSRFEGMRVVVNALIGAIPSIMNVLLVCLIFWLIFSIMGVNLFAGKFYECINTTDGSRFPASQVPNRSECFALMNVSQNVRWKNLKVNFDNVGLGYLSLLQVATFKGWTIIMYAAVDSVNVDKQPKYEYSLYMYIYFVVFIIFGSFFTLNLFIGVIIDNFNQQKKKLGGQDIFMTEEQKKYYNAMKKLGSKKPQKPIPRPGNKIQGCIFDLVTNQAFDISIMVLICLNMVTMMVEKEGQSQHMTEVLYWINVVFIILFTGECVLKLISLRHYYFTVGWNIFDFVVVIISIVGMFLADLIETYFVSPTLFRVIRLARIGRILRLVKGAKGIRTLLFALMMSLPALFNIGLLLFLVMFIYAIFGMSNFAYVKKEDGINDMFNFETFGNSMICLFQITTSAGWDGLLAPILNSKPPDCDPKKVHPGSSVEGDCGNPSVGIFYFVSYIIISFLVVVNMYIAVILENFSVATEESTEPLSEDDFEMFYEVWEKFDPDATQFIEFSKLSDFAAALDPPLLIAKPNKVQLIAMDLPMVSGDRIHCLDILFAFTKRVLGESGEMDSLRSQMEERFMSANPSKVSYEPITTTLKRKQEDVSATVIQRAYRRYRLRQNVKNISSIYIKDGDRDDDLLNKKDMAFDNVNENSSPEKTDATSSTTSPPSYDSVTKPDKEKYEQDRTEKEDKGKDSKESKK

[7] = Efflux ratio of apparent permeability across basolateral to apical side over apical to basolateral side in MDCK1 cells; assay type: ADME, cell-based, Canis lupus familiaris; conditions: dog, MDCK
Cytochrome P450 1A2 = target: T1, Cytochrome P450 1A2 (Homo sapiens, UniProt P05177); assay: Inhibition of CYP1A2 (unknown origin); assay type: ADME
T1 sequence (P05177 whole entry): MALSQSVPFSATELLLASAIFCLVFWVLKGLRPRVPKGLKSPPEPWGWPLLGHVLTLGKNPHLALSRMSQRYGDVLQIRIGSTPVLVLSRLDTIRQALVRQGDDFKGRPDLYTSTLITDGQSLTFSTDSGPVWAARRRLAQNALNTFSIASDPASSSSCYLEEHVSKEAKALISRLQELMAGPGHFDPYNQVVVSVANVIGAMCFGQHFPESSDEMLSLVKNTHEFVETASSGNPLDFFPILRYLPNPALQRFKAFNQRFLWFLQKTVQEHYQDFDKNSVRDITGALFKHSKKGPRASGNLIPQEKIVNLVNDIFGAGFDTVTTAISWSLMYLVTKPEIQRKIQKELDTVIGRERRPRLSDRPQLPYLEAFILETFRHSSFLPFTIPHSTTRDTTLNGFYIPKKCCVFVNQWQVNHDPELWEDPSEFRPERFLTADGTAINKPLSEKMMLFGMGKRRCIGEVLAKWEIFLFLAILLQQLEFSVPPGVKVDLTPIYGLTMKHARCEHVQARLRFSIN

[8] = Half-life in Sprague-Dawley rat at 1 mg/kg, iv; assay type: ADME, organism-based; conditions: in vivo
[9] = Half-life in FVB mouse at 30 mg/kg, po; assay type: ADME, organism-based; conditions: in vivo
[10] = target: Sodium channel protein type 1 subunit alpha (Homo sapiens, UniProt P35498); assay: Inhibition of human Nav1.1 alpha subunit expressed in HEK293 cells co-expressing beta1 subunit at -40 mV holding potential by PatchXpress automated voltage clamp electrophysiology technique; assay type: cell-based
MDR1 = assay: Apparent permeability from apical to basolateral side in MDCK1 cells expressing MDR1; assay type: ADME, cell-based, Canis lupus familiaris; conditions: dog, MDCK-MDR1
Cytochrome P450 2C9 = Cytochrome P450 2C9 (Homo sapiens, UniProt P11712); assay: Inhibition of CYP2C9 (unknown origin); assay type: ADME
Sequence of Cytochrome P450 2C9 (P11712 whole entry): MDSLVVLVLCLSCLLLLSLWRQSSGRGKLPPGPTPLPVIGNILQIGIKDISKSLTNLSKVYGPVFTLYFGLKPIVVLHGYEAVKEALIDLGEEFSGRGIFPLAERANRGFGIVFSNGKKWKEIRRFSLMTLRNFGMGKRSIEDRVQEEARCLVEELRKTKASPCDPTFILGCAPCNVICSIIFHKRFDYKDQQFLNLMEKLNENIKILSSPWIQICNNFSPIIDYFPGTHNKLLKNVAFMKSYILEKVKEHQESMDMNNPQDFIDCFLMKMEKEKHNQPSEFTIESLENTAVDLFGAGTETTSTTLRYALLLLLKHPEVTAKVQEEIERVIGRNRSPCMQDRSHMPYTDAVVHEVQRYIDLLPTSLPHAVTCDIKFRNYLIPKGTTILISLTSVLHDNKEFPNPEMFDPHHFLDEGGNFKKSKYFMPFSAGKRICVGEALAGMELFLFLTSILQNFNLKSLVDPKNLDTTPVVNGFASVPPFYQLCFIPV

Mus musculus = assay: Antinociceptive activity against aconitine-induced pain in FVB mouse model expressing human Nav 1.7 I848T mutant assessed as reduction in nociceptive behavior at 1 mg/kg, po administered 120 mins prior to aconitine administration and measured after 70 mins relative to control; assay type: functional; design: scale not given: the % may be the effect or the level left; conditions: time 190 min, 3.167 h
[11] = target: Sodium channel protein type 10 subunit alpha (Mus musculus) (UniProt Q6QIY3); assay: Inhibition of TTX-resistant Nav1.8 in mouse dorsal root ganglion neuron at 10 uM by voltage clamp recording relative to control; assay type: tissue-based; conditions: DRG neuron
Sequence of Sodium channel protein type 10 subunit alpha (Mus musculus) (Q6QIY3 whole entry): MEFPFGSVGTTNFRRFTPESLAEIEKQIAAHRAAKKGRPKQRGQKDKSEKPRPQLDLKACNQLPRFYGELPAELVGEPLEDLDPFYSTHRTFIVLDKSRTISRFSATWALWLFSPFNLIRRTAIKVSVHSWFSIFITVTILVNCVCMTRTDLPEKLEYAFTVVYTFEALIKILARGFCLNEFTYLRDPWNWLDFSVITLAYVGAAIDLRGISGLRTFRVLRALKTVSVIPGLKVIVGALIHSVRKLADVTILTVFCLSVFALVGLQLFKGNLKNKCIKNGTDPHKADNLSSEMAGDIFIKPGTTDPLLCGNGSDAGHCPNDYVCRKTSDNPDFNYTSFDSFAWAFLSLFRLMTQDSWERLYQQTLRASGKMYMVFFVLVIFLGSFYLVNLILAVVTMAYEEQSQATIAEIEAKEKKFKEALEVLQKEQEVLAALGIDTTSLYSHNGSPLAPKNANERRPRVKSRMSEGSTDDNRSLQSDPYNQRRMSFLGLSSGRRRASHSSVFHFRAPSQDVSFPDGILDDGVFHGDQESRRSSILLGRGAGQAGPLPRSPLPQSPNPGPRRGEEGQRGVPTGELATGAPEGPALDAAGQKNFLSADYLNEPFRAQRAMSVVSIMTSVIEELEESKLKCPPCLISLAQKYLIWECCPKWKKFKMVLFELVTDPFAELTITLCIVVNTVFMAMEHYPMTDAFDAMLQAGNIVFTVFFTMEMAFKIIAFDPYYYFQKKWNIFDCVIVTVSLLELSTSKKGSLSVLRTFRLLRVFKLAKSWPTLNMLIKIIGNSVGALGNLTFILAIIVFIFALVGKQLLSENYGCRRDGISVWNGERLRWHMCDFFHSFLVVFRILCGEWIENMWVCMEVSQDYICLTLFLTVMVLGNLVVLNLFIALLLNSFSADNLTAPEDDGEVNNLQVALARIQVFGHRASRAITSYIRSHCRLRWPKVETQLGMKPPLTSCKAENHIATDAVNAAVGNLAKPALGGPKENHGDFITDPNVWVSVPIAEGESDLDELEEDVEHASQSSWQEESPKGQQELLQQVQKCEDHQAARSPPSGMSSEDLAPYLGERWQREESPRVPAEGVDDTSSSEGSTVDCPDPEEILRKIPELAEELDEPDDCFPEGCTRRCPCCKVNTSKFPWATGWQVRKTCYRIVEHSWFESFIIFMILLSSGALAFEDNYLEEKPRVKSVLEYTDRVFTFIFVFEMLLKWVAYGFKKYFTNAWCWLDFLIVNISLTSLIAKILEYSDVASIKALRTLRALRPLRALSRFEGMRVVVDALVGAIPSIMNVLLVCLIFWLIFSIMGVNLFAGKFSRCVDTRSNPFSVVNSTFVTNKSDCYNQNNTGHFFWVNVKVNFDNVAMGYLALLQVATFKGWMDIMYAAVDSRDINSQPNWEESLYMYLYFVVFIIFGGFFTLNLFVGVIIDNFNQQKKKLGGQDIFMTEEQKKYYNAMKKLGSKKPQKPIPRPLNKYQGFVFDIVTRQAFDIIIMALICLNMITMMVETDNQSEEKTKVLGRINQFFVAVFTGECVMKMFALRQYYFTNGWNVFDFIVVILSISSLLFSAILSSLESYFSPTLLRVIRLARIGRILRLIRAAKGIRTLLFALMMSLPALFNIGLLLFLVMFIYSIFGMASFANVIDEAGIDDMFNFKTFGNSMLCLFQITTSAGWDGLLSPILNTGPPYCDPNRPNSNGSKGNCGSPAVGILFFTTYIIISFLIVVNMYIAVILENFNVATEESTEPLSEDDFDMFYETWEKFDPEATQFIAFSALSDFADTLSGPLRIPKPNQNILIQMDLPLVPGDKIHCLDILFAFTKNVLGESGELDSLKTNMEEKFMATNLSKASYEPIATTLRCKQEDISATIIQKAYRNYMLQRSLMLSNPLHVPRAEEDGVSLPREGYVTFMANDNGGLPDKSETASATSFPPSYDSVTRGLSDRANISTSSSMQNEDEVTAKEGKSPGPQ

[12] = Apparent permeability from apical to basolateral side in MDCK1 cells; assay type: ADME, cell-based, Canis lupus familiaris; conditions: dog, MDCK
[13] = Brain to plasma ratio in FVB mouse model of aconitine-induced pain expressing human Nav1.7 I848T mutant administered orally 120 mins prior to aconitine administered and measured after 70 mins by UPLC-ESI MS/MS analysis; assay type: ADME; conditions: route po, time 190 min, read-out: BPR
[14] = Oral bioavailability in Beagle dog at 1 mg/kg; assay type: ADME, organism-based, Canis lupus familiaris; conditions: in vivo
[15] = target: T2, Peroxisome proliferator-activated receptor gamma (Homo sapiens) (UniProt P37231); assay: Inhibition of PPARgamma (unknown origin) at 10 uM relative to control
T2 sequence (whole entry): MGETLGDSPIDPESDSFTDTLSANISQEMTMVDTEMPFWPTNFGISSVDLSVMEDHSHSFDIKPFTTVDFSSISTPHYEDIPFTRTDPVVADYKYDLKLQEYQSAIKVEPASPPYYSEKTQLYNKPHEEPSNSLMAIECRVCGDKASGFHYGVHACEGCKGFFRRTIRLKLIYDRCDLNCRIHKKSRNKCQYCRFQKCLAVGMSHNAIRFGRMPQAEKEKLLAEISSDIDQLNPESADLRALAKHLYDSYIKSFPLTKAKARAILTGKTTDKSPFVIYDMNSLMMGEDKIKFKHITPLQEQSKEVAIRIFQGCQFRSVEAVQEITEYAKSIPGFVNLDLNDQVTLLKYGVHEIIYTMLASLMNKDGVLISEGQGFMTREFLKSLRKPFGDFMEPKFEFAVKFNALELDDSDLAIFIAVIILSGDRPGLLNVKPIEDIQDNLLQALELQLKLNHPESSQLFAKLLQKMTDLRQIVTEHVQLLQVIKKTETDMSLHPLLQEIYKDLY

[16] = Drug concentration in plasma of orally dosed formalin-induced FVB mouse model of pain measured after 3 hrs by UPLC-ESI […] analysis; assay type: ADME, organism-based; conditions: route po
[17] = Volume of distribution at steady state in Sprague-Dawley rat at 1 mg/kg, iv; assay type: ADME, organism-based; conditions: in vivo, read-out: Vdss
[18] = Half-life in FVB mouse at 1 mg/kg, iv; assay type: ADME, organism-based; conditions: in vivo, iv, 1 mg/kg
[19] = test system: mouse breast cancer resistant protein (Bcrp); assay: Efflux ratio of apparent permeability across basolateral to apical side over apical to basolateral side MDCK-II cells expressing mouse breast cancer resistant protein; assay type: ADME, cell-based, Canis lupus familiaris; conditions: dog
[20] = Volume of distribution at steady state in FVB mouse at 1 mg/kg, iv; assay type: ADME, organism-based; conditions: in vivo, iv, 1 mg/kg
[21] = target: Sodium channel protein type 9 subunit alpha (Mus musculus, UniProt Q62205); assay: Inhibition of mouse Nav1.7 at -60 mV holding potential by PatchXpress automated voltage clamp electrophysiology technique

Sequence of Cytochrome P450 3A4 (P08684 whole entry): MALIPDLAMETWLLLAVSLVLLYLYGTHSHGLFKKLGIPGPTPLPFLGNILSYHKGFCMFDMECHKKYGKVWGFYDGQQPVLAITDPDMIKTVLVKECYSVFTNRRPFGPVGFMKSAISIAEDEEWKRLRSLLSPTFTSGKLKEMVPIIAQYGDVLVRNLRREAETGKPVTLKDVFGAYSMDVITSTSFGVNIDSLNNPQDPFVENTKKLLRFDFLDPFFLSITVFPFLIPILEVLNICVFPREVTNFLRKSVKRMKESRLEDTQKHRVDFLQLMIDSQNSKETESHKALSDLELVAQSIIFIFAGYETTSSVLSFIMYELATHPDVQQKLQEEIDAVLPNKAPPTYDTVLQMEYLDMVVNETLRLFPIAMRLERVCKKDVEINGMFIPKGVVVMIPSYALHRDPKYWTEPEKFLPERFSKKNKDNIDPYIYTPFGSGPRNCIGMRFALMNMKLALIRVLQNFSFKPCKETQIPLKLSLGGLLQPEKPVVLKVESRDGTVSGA

For `CC1(COc2cc(F)c(C(=O)NS(=O)(=O)C3CC3)cc2C2CC2)CCC2(CC1)CC2`, the IC50 (Cytochrome P450 3A4) was > 10000 nM, the clearance [1] was 1.2 mL/min/kg and the Activity [2] was “Non-Toxic”. The bioavailability [3] was 49%, the AUC [4] was 113 µM·h and the IC50 [5] was 38 nM. For the same compound, the IC50 [6] was 15 nM, the efflux ratio [7] was 1 and the IC50 (Cytochrome P450 1A2) was > 10000 nM. The half-life [8] was 8.1 h, the half-life [9] was 9.2 h and the IC50 [10] was 6 nM. The Papp A→B (MDR1) was 3.7 ×10⁻⁶ cm/s, the IC50 (Cytochrome P450 2C9) was 6100 nM and the Activity (Mus musculus) was 86%. The inhibition [11] was 38%, the Papp A→B [12] was 9 ×10⁻⁶ cm/s and the Kp at 3.167 h [13] was 0.08. It also gave a bioavailability [14] of 68%, an inhibition [15] of 91% and a concentration at 3 h [16] of 50 µM. It also gave a Vd [17] of 0.88 L/kg, a t1/2 [18] of 1.5 h and an efflux ratio [19] of 2.1. The Vdss [20] was 0.41 L/kg and the IC50 [21] was 2.2 nM.
